“Also recorded” adds a separate entry of the source.
Experiments:
IAR20 PC1 cells [1] = assay: Factor-based classification of cell shape phenotype from interference contours (predicted time in culture); set-up: species or system rat; conditions: for shift of signature-type (mean predicted time) versus control, in words / mean predicted time (signature-type, factor-based classification): 2 hr exposure; for shift of signature-type (mean predicted time) versus control, in words: taxanes 6–18 μM, baccatin III 9 μM, colchicine 2 μM; for factors used in classification whose values changed significantly: 2 h exposure; for mean predicted time (signature-type, factor-based classification): FIG. 1 experiment, 2 μM colchicine, 18 μM paclitaxel, 10 μM valinomycin, 0.5 μM gramicidin D, 200 μM quinidine, control 283 days; for factor #4 value (filopodia / sharp projections at cell edge) / factor #7 value (knob-like structures at the cell edge) / factor #8 value (sharp features in the second contour): versus control; for factor #12 value (slope at which cell rises from substratum, rounding-up): versus control / direction relative to signature-type; for factor #8 value (sharp features in the second contour): monensin 24 μM
Description: (§1) Cell lines and interference preparations. Equations were developed to define changes in the signature-type for two epithelial cell lines that underwent transformation over a prolonged time of in vivo culture. […] IAR20 PC1 was a clonal derivative of a line called IAR20, which was cultured from liver cells of a BD-VI rat. […] Liver cells were grown in William's E medium supplemented with 10% fetal bovine serum, whereas the tracheal cells were grown in Waymouth's medium containing fetal bovine serum plus 0.1 μg/ml insulin and 0.1 μg /ml hydrocortisone. The cells were maintained and subcultured as described elsewhere (1,3). For experiments with insulin supplementation, insulin concentrations were raised to 1 and 10 μg/ml and maintained for two passages before the cells were used.
(§2) Information about shape features was derived from interference images. These were generated by culturing cells on anodized tantalum substrates, and then imaging them in reflected light. Cells were plated on substrates in replicate dishes, left overnight, and then exposed to experimental agents or to the solvent vehicle alone. After incubation with the agents for 2–5 h, samples were recovered, fixed in buffered 3% glutaraldehyde (pH 7.3), and air-dried. Randomly selected cells were imaged in a Zeiss Universal microscope, and the outlines of their three lowermost interference contours were digitized. […] Each experimental treatment was represented by a total of 50 cells.
(§3) Classification procedures. The classification methods employed a subset of the contour shape variables. Each 50-cell sample was submitted to multiple linear regression analysis for classification alongside a group of cells representing normal and transformed reference samples. The latter were obtained from the lines that underwent transformation as described above. Because the signature-type value was assigned relative to these samples, the solutions were in units of predicted time in culture. After obtaining such a value for each cell in an experiment, the differences in mean predicted times for treated and control cells were calculated. The sum of the squared standard deviations, divided by the number of observations, n, was used to compute the confidence limits of the mean: (s1)^2/n+(s2)^2/n Where s was the standard deviation for each sample. Dividing the difference between the means by the square root of the above expression yields a value that can be related to the degree of confidence, 1-α. […] This value was equivalent to a probability that the two samples differed of P≦0.02.
(§4) Again, classification of samples from experiments employed multiple linear regression methods, based on factors scores rather than on contour shape variables. Factors were generated by combining into a single database, the contour shape variables from highly malignant epithelial cells and precancerous lines that change progressively, eventually become neoplastic. […] Principal components were extracted and transformed by a pattern of rotation to produce latent factors, which described variances that had thereby been rendered orthogonal (8). Factor scores for each cell represented in the database to be estimated. These factor scores from known IAR20 PC1 or 1000 W cells are used as a reference to classify data from short-term experiments on the respective samples. The factors used in classification were selected by the SAS REG procedure (8). […] Predicted time-in-culture values were obtained by submitting the experimental cells to analysis, as described above for simple variables. The statistical significance of differences among sample means within each experiment was determined by the Duncan multiple range test.

1000 W cells = assay: as above; set-up: species or system rat; conditions: for predicted time (factor-based classification): time zero 612 days; for number of the eight contour shape variables highly correlated with factor #4 that changed significantly: 1000 W cells, FIG. 7—Table 3; for change of signature-type versus control, in words: paclitaxel 2-h or 5 h exposure, insulin 0.1–10 μg/ml
Description: as §1, with “Equations were developed to define changes in the signature-type for two epithelial cell lines that underwent transformation over a prolonged time of in vivo culture.” left out
as §2, with “After incubation with the agents for 2–5 h, samples were recovered, fixed in buffered 3% glutaraldehyde (pH 7.3), and air-dried.” left out
as §3, §4

IAR20 PC1 cells [2] = assay: Indirect immunofluorescence localization of beta-tubulin (microtubule organization); assay type: cell-based, rat; conditions: for MT organization / arrangement, in words: exposure 2–5 h; for cells with MT bundles on both sides of the nucleus: taxane alone or IC with 2 μM colchicine
Description: Immunofluorescene localization of β-tubulin. IAR20 PC1 cells were subcultured onto sterile glass cover slips as described above. Replicate samples were exposed to test agents for 2–5 h alongside controls, and then fixed and left in methanol at −70° C. until used for the immunofluorescence procedure. To visualize arrays of MTs, cells were exposed to a mouse monoclonal anti-β tubulin antibody (Nycomed Amersham, Little Chalfont, Buckinghamshire, UK), made up at a 1:300 dilution. We used a 1:100 dilution of P3×63 monoclonal antibody from P3 myeloma (generous gift from J. Lessard) as a non-specific control. The secondary antibody, […] goat anti-mouse immunoglobulin G (US Biochemical Corp., Cleveland), was used at a dilution of 1:2000. Cover slips were processed and then mounted on a slide in a solution of 1,4-diazobicyclo[2.2.2]octane (Sigma) made up to 25 mg/ml in glycerol. The samples were photographed on a Zeiss Axiophot microscope equipped with a 63x Planapo lens. Images were recorded on Kodak Tri-X or T-Max film. All of the drugs, including paclitaxel, cephalomannine, colchicine, and baccatin III, were studied to see if they affected the arrangement of MTs. […] MT arrangement was unaltered after treatment with the above-mentioned ionophores and transport inhibitors.

IAR20 PC1 cells [3] = assay: Uptake of fluid-phase marker horseradish peroxidase; assay type: cell-based, rat; conditions: monensin treatment

Compound: CC(=O)O[C@H]1C(=O)[C@]2(C)CC[C@H]3OC[C@@]3(OC(C)=O)[C@H]2[C@H](OC(=O)c2ccccc2)[C@]2(O)C[C@H](OC(=O)[C@H](O)[C@@H](NC(=O)c3ccccc3)c3ccccc3)C(C)=C1C2(C)C [7-deoxytaxol]
- shift of signature-type (mean predicted time) versus control, in words (IAR20 PC1 cells [1]): failed to shift

Compound: CCCCCCCCCCCCCC(=O)O[C@@H]1[C@@H](C)[C@@]2(O)[C@@H](C=C(CO)C[C@]3(O)C(=O)C(C)=C[C@@H]23)[C@@H]2C(C)(C)[C@]12OC(C)=O [PMA, phorbol 12-myristate 13-acetate]
- predicted time (factor-based classification) (1000 W cells; 30 min after PMA exposure): 648 days
- predicted time (factor-based classification) (1000 W cells; 2 h after PMA exposure): 663 days
- predicted time (factor-based classification) (1000 W cells; 5 h after PMA exposure): 668 days
- predicted time (factor-based classification) (1000 W cells; 10 h after PMA exposure): 604 days
- factor #1 value (1000 W cells; PMA time course): significantly elevated for a brief period after exposure
- factor #2 value (1000 W cells; PMA, 10-h time point): significantly reduced below control
- factor #7 value (knob-shaped projections on the cell edge) (1000 W cells; PMA, one experiment): adopted values like those of transformed cells
- factor #16 value (size variability in projections at the cell edge) (1000 W cells; PMA, one experiment): adopted values like those of transformed cells
- factor #4 value (1000 W cells; PMA, times between 0.5 and 5 h): indistinguishable from those of control samples
- factor #12 value (1000 W cells; PMA, times between 0.5 and 5 h): indistinguishable from those of control samples

Compound: CC(=O)O[C@H]1C(=O)[C@@]2(C)[C@H]([C@H](OC(=O)c3ccccc3)[C@]3(O)C[C@H](O)C(C)=C1C3(C)C)[C@]1(OC(C)=O)CO[C@@H]1C[C@@H]2O [baccatin III, Baccatin III]
- shift of signature-type (mean predicted time) versus control, in words (IAR20 PC1 cells [1]): failed to shift
- MT organization / arrangement, in words (IAR20 PC1 cells [2]): little noticeable effect

Compound: C/C=C(\C)C(=O)N[C@@H](c1ccccc1)[C@@H](O)C(=O)O[C@H]1C[C@@]2(O)[C@@H](OC(=O)c3ccccc3)[C@@H]3[C@]4(OC(C)=O)CO[C@@H]4C[C@H](O)[C@@]3(C)C(=O)[C@H](OC(C)=O)C(=C1C)C2(C)C [cephalomannine]
- shift of signature-type (mean predicted time) versus control, in words (IAR20 PC1 cells [1]): failed to shift
- MT organization / arrangement, in words (IAR20 PC1 cells [2]): caused MTs to aggregate in the form of arc-shaped bundles
- cells with MT bundles on both sides of the nucleus (IAR20 PC1 cells [2]): 71%

Compound: CCN(CC)CCCC(C)Nc1ccnc2cc(Cl)ccc12 (stereo not shown) [chloroquine]
- factors used in classification whose values changed significantly (IAR20 PC1 cells [1]): did not significantly change any of the factors
- mean predicted time (signature-type, factor-based classification) (IAR20 PC1 cells [1]): 315 days

Compound: COc1cc2c(c(OC)c1OC)-c1ccc(OC)c(=O)cc1[C@@H](NC(C)=O)CC2 [colchicine]
- mean predicted time (signature-type, factor-based classification) (IAR20 PC1 cells [1]): 338 days
- factor #4 value (filopodia / sharp projections at cell edge) (IAR20 PC1 cells [1]): decreased
- factor #7 value (knob-like structures at the cell edge) (IAR20 PC1 cells [1]): increased
- factor #12 value (slope at which cell rises from substratum, rounding-up) (IAR20 PC1 cells [1]): mimicked; also recorded: increased
- MT organization / arrangement, in words (IAR20 PC1 cells [2]): complete depolymerization of MTs
- mean predicted time (1000 W cells; 2 μM colchicine for 2 hrs, cells grown in 0.1 μg/ml insulin, untreated 655 days): 737 days
- mean predicted time (1000 W cells; 2 μM colchicine for 2 hrs, cells grown in 1 μg/ml insulin, untreated 638 days): 687 days
- mean predicted time (1000 W cells; 2 μM colchicine for 2 hrs, cells grown in 10 μg/ml insulin, untreated 637 days): 673 days
- factor #1 value (massive extensions or invaginations in the two uppermost contours) (1000 W cells; colchicine exposure): increased
- average solution of predicted time (1000 W cells; second experiment, colchicine-treated sample, control 636 days): 689 days

Compound: CC[C@@]1([C@@H]2O[C@@H]([C@H]3O[C@@](O)(CO)[C@H](C)C[C@@H]3C)C[C@@H]2C)CC[C@H]([C@]2(C)CC[C@]3(C[C@H](O)[C@@H](C)[C@@H]([C@@H](C)[C@@H](OC)[C@H](C)C(=O)O)O3)O2)O1 [monensin]
- time after initial exposure by which horseradish peroxidase uptake was inhibited (IAR20 PC1 cells [3]): ≤ 30 min
- average predicted time (factor-based classification) (IAR20 PC1 cells [1]; 24 μM monensin alone or together with 50 μM ouabain, control 318 days): 344 days
- factor #4 value (filopodia / sharp projections at cell edge) (IAR20 PC1 cells [1]): change in factor #4
- factor #8 value (sharp features in the second contour) (IAR20 PC1 cells [1]): affected

Compound: CC(=O)O[C@H]1C(=O)[C@@]2(C)[C@H]([C@H](OC(=O)c3ccccc3)[C@]3(O)C[C@H](OC(=O)[C@H](O)[C@@H](NC(=O)c4ccccc4)c4ccccc4)C(C)=C1C3(C)C)[C@]1(OC(C)=O)CO[C@@H]1C[C@@H]2O [paclitaxel]
- factors used in classification whose values changed significantly (IAR20 PC1 cells [1]): changes in factors #1, #7, and #12
- shift of signature-type (mean predicted time) versus control, in words (IAR20 PC1 cells [1]): failed to promote the signature-type
- mean predicted time (signature-type, factor-based classification) (IAR20 PC1 cells [1]): 304 days
- factors whose values changed (IAR20 PC1 cells [1]; paclitaxel at a high concentration over a 4-h period): changes in #1, #7, #8, and #13
- factor #12 value (slope at which cell rises from substratum, rounding-up) (IAR20 PC1 cells [1]): counteracted
- MT organization / arrangement, in words (IAR20 PC1 cells [2]): large bundles of MTs
- cells with MT bundles on both sides of the nucleus (IAR20 PC1 cells [2]): 56%
- number of the eight contour shape variables highly correlated with factor #4 that changed significantly (1000 W cells): six of their values differed significantly
- number of the eight contour shape variables highly correlated with factor #4 that changed significantly (1000 W cells; listed as Paclitaxel): six out of the eight
- change of signature-type versus control, in words (1000 W cells): failed to elicit any change

Compound: CC(C)[C@@H]1NC(=O)[C@H](C)OC(=O)[C@@H](C(C)C)NC(=O)[C@@H](C(C)C)OC(=O)[C@H](C(C)C)NC(=O)[C@H](C)OC(=O)[C@@H](C(C)C)NC(=O)[C@@H](C(C)C)OC(=O)[C@H](C(C)C)NC(=O)[C@H](C)OC(=O)[C@@H](C(C)C)NC(=O)[C@@H](C(C)C)OC1=O [valinomycin]
- mean predicted time (signature-type, factor-based classification) (IAR20 PC1 cells [1]): 336 days
- factor #4 value (filopodia / sharp projections at cell edge) (IAR20 PC1 cells [1]): change in factor #4
- factor #8 value (sharp features in the second contour) (IAR20 PC1 cells [1]): affected

Compound: gramicidin D
- mean predicted time (signature-type, factor-based classification) (IAR20 PC1 cells [1]): 387 days
- factor #4 value (filopodia / sharp projections at cell edge) (IAR20 PC1 cells [1]): change in factor #4
- factor #7 value (knob-like structures at the cell edge) (IAR20 PC1 cells [1]): increase

Compound: insulin
- mean predicted time (1000 W cells; grown in 0.1 μg/ml insulin, no colchicine): 655 days
- mean predicted time (1000 W cells; grown in 1 μg/ml insulin, no colchicine): 638 days
- mean predicted time (1000 W cells; grown in 10 μg/ml insulin, no colchicine): 637 days
- change of signature-type versus control, in words (1000 W cells): no significant differences
